± gives the expanded uncertainty stated by the source.
Conditions: Crystal; visual observation

COc1ccc2cc([C@H](C)C(=O)O)ccc2c1 [(S)-(+)-naproxen]
Normal melting temperature: 155 ± 1.1 °C
